Results from patent publication US12227487B1, “Acyloxy substituted phenyl dithiane derivatives” (Renovel Innovations, Inc, priority 2021, dated 2025).

How the values were obtained:
[1] = system: mice; experiment: Disease Activity Index in DSS mice, 21 day study; format: in vivo; conditions: end of study period of 21 days, compared with the vehicle DSS group, P<0.04
[2] = system: TNF-α; experiment: TNF-α level in Lipopolysaccharide (LPS) treated mice; format: in vivo; conditions: compared to the control Lipopolysaccharide (LPS) group
[3] = target: COX-1 enzyme (Homo sapiens, UniProt P23219); experiment: COX-1 enzyme inhibition; format: biochemical; conditions: FIG. 3A
Sequence of COX-1 enzyme (P23219 24-599): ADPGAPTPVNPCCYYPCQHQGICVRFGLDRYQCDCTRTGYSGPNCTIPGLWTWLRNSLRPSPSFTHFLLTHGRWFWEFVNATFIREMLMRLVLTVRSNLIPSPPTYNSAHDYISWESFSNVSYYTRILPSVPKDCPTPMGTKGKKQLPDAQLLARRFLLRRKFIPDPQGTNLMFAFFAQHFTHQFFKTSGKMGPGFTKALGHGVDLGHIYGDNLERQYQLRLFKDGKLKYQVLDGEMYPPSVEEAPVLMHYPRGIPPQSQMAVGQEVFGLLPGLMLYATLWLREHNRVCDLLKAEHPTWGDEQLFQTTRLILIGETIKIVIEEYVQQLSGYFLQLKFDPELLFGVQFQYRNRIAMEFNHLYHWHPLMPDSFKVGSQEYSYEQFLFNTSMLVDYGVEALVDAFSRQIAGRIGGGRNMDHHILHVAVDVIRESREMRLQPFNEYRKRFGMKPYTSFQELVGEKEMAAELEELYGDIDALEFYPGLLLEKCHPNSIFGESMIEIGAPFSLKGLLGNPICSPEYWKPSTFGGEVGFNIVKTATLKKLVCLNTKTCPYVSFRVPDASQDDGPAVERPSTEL

[4] = target: T1, COX-2 enzyme (Homo sapiens, UniProt P35354); experiment: COX-2 enzyme inhibition; format: biochemical; conditions: FIG. 3A
T1 sequence (P35354 18-604): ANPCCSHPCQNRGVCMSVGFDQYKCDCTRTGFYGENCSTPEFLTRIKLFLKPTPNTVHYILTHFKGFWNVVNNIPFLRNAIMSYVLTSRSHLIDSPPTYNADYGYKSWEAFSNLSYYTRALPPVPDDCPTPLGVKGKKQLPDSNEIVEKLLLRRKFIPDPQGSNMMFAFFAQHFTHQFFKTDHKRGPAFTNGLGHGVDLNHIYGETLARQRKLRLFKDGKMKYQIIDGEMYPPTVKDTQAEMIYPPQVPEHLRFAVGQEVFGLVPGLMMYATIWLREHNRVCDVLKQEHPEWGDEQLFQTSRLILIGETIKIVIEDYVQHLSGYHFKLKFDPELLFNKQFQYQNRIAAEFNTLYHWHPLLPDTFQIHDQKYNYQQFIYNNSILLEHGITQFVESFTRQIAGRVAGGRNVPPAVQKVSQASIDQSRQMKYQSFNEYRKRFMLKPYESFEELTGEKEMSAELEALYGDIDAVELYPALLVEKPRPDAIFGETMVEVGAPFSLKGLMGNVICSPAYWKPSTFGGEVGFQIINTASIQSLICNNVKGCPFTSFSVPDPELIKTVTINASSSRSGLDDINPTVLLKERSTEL

[5] = system: IL-6; experiment: IL-6 level in LPS treated mice; format: in vivo; conditions: compared to the control LPS group

Structure (SMILES)	decrease in Disease Activity Index [1]	decrease of TNF-α [2]	reduction of COX-1 enzyme activity [3]	reduction of COX-2 enzyme activity [4]	decrease of IL-6 [5]
CC/C=C\CC(=O)Oc1ccc(Br)cc1C1SCCCS1 [compound 1, (Z)-4-bromo-2-(1,3-dithian-2-yl)phenyl hex-3-enoate]	23%	53%	38%	45%	19%
COc1cc(C2SCCCS2)ccc1OC(=O)/C=C/c1ccccc1 [compound 2, 4-(1,3-dithian-2-yl)-2-methoxyphenyl cinnamate]		26%			
